Source: patent US4761405A, “Antagonists of specific excitatory amino acid neurotransmitter receptors having increased potency” (priority 1987, dated 1988)
Where “and” joins values, the source holds several entries; their conditions need not be identical. Equal entries are not always repeated. Entries after “also recorded” stand apart in the source; their conditions may differ. Where two headings read alike, the source gives them in different places.

Assays:
[1] = tested on: NMDA receptors (rat forebrain membranes); test: In vitro receptor binding: inhibition of specific [3H]CPP binding; conditions: for Inhibition of [3H]CPP binding / interaction with NMDA-type receptors, in words: 50 μM; for Percent inhibition of specific ligand binding, [3H]CPP: 50 μM compound, 8 nM ligand, pH 7.4, 30 min, 23° C., mean ± S.E.M. of three determinations
Procedure: (§1) The potency of the compound described in example IV to inhibit the specific binding of various EAA ligands to rat forebrain membranes was examined using standard in vitro binding techniques. Specifically, example IV was evaluated for potency to inhibit the specific binding of [^3 H]kainic acid ([^3 H]KA),[^3 H]RS-α-amino-3-hydroxy-5-methyl-4-isoxazole propionic acid([^3 H]AMPA) and [^3 H]3-(2-carboxypiperazin-4-yl) propyl-1-phosphonic acid([^3 H]CPP) to KA, QUIS and NMDA receptors, respectively.
(§2) Methods were as follows: rat forebrain membranes were prepared as described by Enna and Synder [Mol. Pharmacology, 13, 422-453 (1977)] and the "buffy coat" preparation was washed three additional times by centrifugation (45,000 g; 10 min; 4° C.) with intermittent resuspensions (20 vol; w/v) in fresh buffer (Tris HCl; 0.05M; pH 7.4; 23° C.). Following the final wash, pellets were stored frozen (-20° C.) until used.
(§3) On the day of assay, pellets were thawed to room temperature, resuspended in buffer (Tris HCl; 0.05 M; various pH; 23° C.) and washed three additional times by centrifugation as described in the preceeding paragraph. For assay, the washed tissue was resuspended in buffer at a concentration of 10 mg/mL. All procedures were performed using triplicate incubations in a final volume of 2 mL which consisted of the tissue suspension (1 mL), ligand, the compound(s) of interest and 1 mL of buffer. In every instance, Glu (10^-3 M) was used to determine nonspecific binding. Assays were terminated by centrifugation (45,000 g; 10 min; 4° C.), the pellet was washed rapidly and superficially with 2×2.5 mL of ice-cold buffer and dissolved in 1 mL of Protosol® (New England Nuclear, Boston, Mass.). Following the addition of 6 mL of Econfluor® (New England Nuclear, Boston, Mass.) radioactivity was determined using conventional liquid scintillation spectrophotometry.
Specific binding of [^ 3H]CPP (S.A.=27 Ci/mmol, New England Nuclear, Boston, Mass.) was examined using a modification of the method of Murphy et al., [(J. Pharmacol. Exp. therap., (in press)] using Tris HCl buffer (pH 7.4). Incubations were conducted for 30 min at 23° C. using a final ligand concentration of 8 nM.
(§4) All assays were performed on three separate occassions. Appropriate reference compounds were evaluated in each assay and experiment using parallel incubations. All compounds were examined at a single concentration (50 uM) and activity was expressed as the percent inhibition of specific binding of each ligand.
(§5) Method(s) have been described in the text. Values shown are the means ±S.E.M. of three separate determinations performed using triplicate incubations and are expressed as the percent inhibition of specifically bound ligand. All drugs were tested at a single concentration of 50 μM.

[2] = tested on: QUIS receptors (rat forebrain membranes); test: In vitro receptor binding: inhibition of specific [3H]AMPA binding; conditions: for Inhibition of [3H]AMPA binding, in words: 50 μM; for Percent inhibition of specific ligand binding, [3H]AMPA: 50 μM compound, 4 nM ligand, pH 6.9, 100 mM KSCN, 60 min, 4° C., mean ± S.E.M. of three determinations
Procedure: as §1, §2, §3
Specific [^3 H]AMPA (S.A.=27.5 Ci/mmol, New England Nuclear, Boston, Mass.) binding was examined according to the method of Murphy et al., [(Soc. Neurosci. Abs., 11, 109, (1985)] using Tris HCl buffer (pH 6.9) supplemented with 100 mM KSCN. Incubations were conducted for 60 min at 4° C. using a final ligand concentration of 4 nM.
as §4, §5

[3] = tested on: KA receptors (rat forebrain membranes); test: In vitro receptor binding: inhibition of specific [3H]KA binding; conditions: for Percent inhibition of specific ligand binding, [3H]KA: 50 μM compound, 2 nM ligand, pH 7.4, 90 min, 2° C., mean ± S.E.M. of three determinations
Procedure: as §1, §2, §3
Specific binding of [^3 H]KA (S.A.=60 Ci/mmol, New England Nuclear, Boston, Mass.) was examined according to the method of London and Coyl [(Mol. Pharmacol., 15, 492-505 (1979)] using Tris HCl buffer (pH 7.4). Incubations were conducted for 90 min at 2° C. using a final ligand concentration of 2 nM.
as §4, §5

[4] = tested on: pentylenetetrazol (PTZ)-induced seizures; test: Protection against pentylenetetrazol (PTZ)-induced seizures; format: in vivo, male CF-1 mice
Procedure: The anticonvulsant properties of example IV and of the reference compound DL(±)AP7 against seizures induced by subcutaneous (s.c.) injection of pentylenetetrazol (PTZ) were evaluated using mice.
For testing, PTZ was dissolved in saline (0.9%; w/v) and administered to male CF-1 mice (Charles Rivers: 20-25 g) at a dose of 90 mg/kg (s.c.) fifteen minutes (ICV) or thirty minutes (IP) after the administration of the test compounds. Example IV and the reference compound were dissolved in sline and administered in a final volume of 5 μL (ICV) or 200 μL (IP). […] Presence of seizures was defined as one or more episodes of clonic activity having a duration of five seconds or greater. Following preliminary dose-ranging studies, dose-response curves were generated using at least five different doses of each compound with eight animals at each dose. The dose of drug required to protect fifty percent (ED50) of the test animals from PTZ-induced seizures was calculated using log-logit analysis. Ninety-five percent confidence intervals (CL95) were calculated using the method of Litchfield and Wilcoxon [J. Pharmacol. Exp. Therap., 96, 99-113 (1949)].
(§6) Method(s) have been described in the text. Where ED50 's are shown,
(§7) *Where ninetyfive percent confidence limits are not shown, the values

[5] = tested on: maximal electroshock (MES)-induced seizures; test: Protection against maximal electroshock (MES)-induced seizures; format: in vivo, male CF-1 mice; conditions: for ED50: Mus musculus, 0.5 h, ip, 30 min prior; for ED50 / ED50, maximal electroshock, icv: 50 mA, 0.2 s; for ED50, maximal electroshock, icv: 15 min prior
Procedure: The anticonvulsant properties of example IV and of the reference compound DL(±)AP7 against seizures induced by maximal electroshock (MES) were evaluated using mice.
For testing, electrodes were clipped to the ears of male CF-1 mice (20-25 g; Charles Rivers) and a current of 50 mA was delivered for 0.2 seconds to produce seizures. Drugs were dissolved in saline (0.9%; w/v) and administered fifteen minutes (ICV) or thirty minutes (IP) prior to testing. Injection protocols and group size were identicl to those described in example VI. […] Seizures were scored as being present or absent. Data was calculated as described in example VI.
as §6, §7

[6] = tested on: cultured rat hippocampal neurones; conditions: cited from earlier work
[7] = icv, 15 min before PTZ 90 mg/kg s.c.
[8] = ">" = maximum dose tested, no animals protected, read-out: ED50, maximal electroshock, ip (mg/kg)
[9] = ">" = maximum dose tested, no animals protected, read-out: ED50, maximal electroshock, ip (mmol/kg)
[10] = ">" = maximum dose tested, no animals protected
[11] = Mus musculus, ip, 30 min before PTZ 90 mg/kg s.c.; ">" = maximum dose tested, no animals protected

Molecule | Inhibition of [3H]CPP binding / interaction with NMDA-type receptors, in words [1] | Percent inhibition of specific ligand binding, [3H]CPP [1] | Inhibition of [3H]AMPA binding, in words [2] | Percent inhibition of specific ligand binding, [3H]AMPA [2] | Percent inhibition of specific ligand binding, [3H]KA [3] | ED50, pentylenetetrazol, icv (nmoles) [4, 7] | ED50, pentylenetetrazol, icv (ug) [4, 7] | ED50, maximal electroshock, icv [5, 10] | also measured
Cc1onc(O)c1CC(N)C(=O)O (racemic) [AMPA, RS-α-amino-3-hydroxy-5-methyl-4-isoxazole propionic acid] | without appreciable activity | 7 ± 4% | most potent inhibitors of binding | 100 ± 0% | 64 ± 4% |  |  |  | 
NC(CCCCCP(=O)(O)O)C(=O)O (racemic) [DL(±)AP7] |  |  |  |  |  | 6.8 nmol | 1.37 µg | 6.8 µg and 7.3 µg | ED50 ([4]; Mus musculus; ip, 30 min before PTZ 90 mg/kg s.c.): 780 to 880 µmol/kg; ED50 ([4]; Mus musculus; ip, 30 min before PTZ 90 mg/kg s.c.; ">" = maximum dose tested, no animals protected): 176 to 199 mg/kg; Attenuation of MES-induced seizure activity, in words ([5]; ICV): dose-dependent protection; ED50 [5, 8]: 127 to 170 mg/kg; ED50 [5, 9]: 0.56 to 0.76 mmol/kg; ED50, maximal electroshock, icv [5]: 29 nmol and 34 nmol
NC(CCC1CCCCC1CP(=O)(O)O)C(=O)O (stereo not shown) [4-(2-phosphonomethyl)cyclohexyl-2-aminobutyric acid] | high affinity and selectivity |  |  |  |  |  |  |  | Anticonvulsant activity in PTZ seizure model, in words ([4]; mice): provide protection in pentylenetetrazol (PTZ) induced seizures
N[C@H](CCCP(=O)(O)O)C(=O)O [D(-)AP5, D(-)-2-amino-5-phosphonopentanoic acid] |  | 95 ± 4% |  | 3 ± 2% | 22 ± 1% |  |  |  | 
N[C@H](CCCCCP(=O)(O)O)C(=O)O [D(-)AP7, D(-)-2-amino-7-phosphonoheptanoic acid] |  | 100 ± 0% |  | 7 ± 5% | 17 ± 2% |  |  |  | 
NC(CC1CCCCC1CCP(=O)(O)O)C(=O)O (stereo not shown) [Example IV, 2-amino-4.5-(1,2-cyclohexyl)-7-phosphonoheptanoic acid] | interacts, albeit with moderate affinity, in a highly specific manner with NMDA-type receptors | 33 ± 9% | without appreciable activity | 1 ± 1% | 9 ± 4% | 0.14 nmol and 0.19 nmol | 0.04 µg and 0.06 µg | 90 µg | Inhibition of [3H]CPP binding / interaction with NMDA-type receptors, in words ([1]; listed as 3-(2-phosphonoethyl)cyclohexyl-2-aminopropionic acid): high affinity and selectivity; Inhibition of [3H]KA binding, in words ([3]; 50 μM): least active; fold more potent than DL(±)AP7 to prevent PTZ-induced seizures, ICV ([4]; ICV, vs DL(±)AP7): 30-40 fold; fold more potent than DL(±)AP7 to prevent PTZ-induced seizures, IP ([4]; IP, vs DL(±)AP7): approximately 2 fold; ED50 ([4]; Mus musculus, ip, 30 min before PTZ 90 mg/kg s.c.): 310 µmol/kg; ED50 [4, 11]: 90 mg/kg; ED50, pentylenetetrazol, ip ([4]; ip, 30 min before PTZ 90 mg/kg s.c.): 0.47 mmol/kg; ED50, pentylenetetrazol, ip ([4]; ip, 30 min before PTZ 90 mg/kg s.c.; ">" = maximum dose tested, no animals protected): 134 mg/kg; Anticonvulsant activity in PTZ seizure model, in words ([4]; mice): potent, novel and systemically active anticonvulsant agent; Anticonvulsant activity in PTZ seizure model, in words ([4]; mice; listed as 3-(2-phosphonoethyl)cyclohexyl-2-aminopropionic acid): provide protection in pentylenetetrazol (PTZ) induced seizures; Attenuation of MES-induced seizure activity, in words ([5]; ICV): moderately potent; also recorded: relative lack of potency; fold less potent as an anticonvulsant in MES compared to its activity in the PTZ seizure model ([5]; ICV, MES vs PTZ): 360 fold; fold less potent than DL(±)AP7 as an anticonvulsant in the MES test ([5]; ICV, vs DL(±)AP7): approximately 11 fold; Prevention of MES-induced seizures on systemic administration ([5]; IP, up to 350 mg/kg, n=6): failed to prevent MES-induced seizures in any animal; ED50 [5, 8]: > 350 mg/kg; ED50 [5, 9]: > 1.2 mmol/kg; ED50, maximal electroshock, icv [5]: 314 nmol
NC(Cc1ccccc1CCP(=O)(O)O)C(=O)O (stereo not shown) [III, 2-Amino-4,5-benzo-7-phosphonoheptanoic acid] |  |  |  |  |  | 44 nmol | 3.2 µg | > 100 µg | ED50 [4, 11]: > 350 mg/kg
C=C(C)[C@H]1CN[C@H](C(=O)O)[C@H]1CC(=O)O [KA, kainic acid] | without appreciable activity | 3 ± 2% | moderate activity | 56 ± 5% | 100 ± 0% |  |  |  | 
δ-D-glutamyl glycine |  |  |  |  |  |  |  |  | Effect on toxicity of exogenously applied Glu and Asp ([6]; exogenously applied Glu and Asp): blocking the toxicity of exogenously applied Glu and Asp; Protection of neurones from degeneration ([6]; oxygen depletion): protect cultured rat hippocampal neurones from degeneration
